Source: PubChem BioAssay AID2060356 (Molecular Pharmacology Branch, DTP, NCI, 2025)

System: PDC tumor spheroids with HUVEC/MSC, viability
Assay: Anticancer human tumor 439559-082-T-J2-PDC patient-derived colon adenocarcinoma cell line growth inhibition [TAK]
Conditions: for IC50: curve of first compound; for viability, T/C: stronger effect = lower value
How it was run: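 Tumor cells were grown as spheroids with HUVEC and hMSC (60:25:15) and treated with targeted agents combined with TAK-243 or ipatasertib. Drugs were tested in half-log steps down from near the clinical Cmax, or from 10 microM where Cmax was unknown.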
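Note: spheroids exposed to drugs for seven days before readout.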

## CCCS(=O)(=O)Nc1ccc(F)c(C(=O)c2c[nH]c3ncc(-c4ccc(Cl)cc4)cc23)c1F + CC(C)NCC(C(=O)N1CCN(c2ncnc3c2C(C)CC3O)CC1)c1ccc(Cl)cc1
Second compound 0.3 µM
  IC50: > 100 µM
Second compound 0.949 µM
  IC50: > 100 µM
Second compound 3 µM
  IC50: > 100 µM
Second compound 9.49 µM
  IC50: > 100 µM
Second compound 30 µM
  IC50: 24.8 µM
Second compound 0.3 µM, first compound 0.316 µM
  viability, T/C: 117%
Second compound 0.3 µM, first compound 1 µM
  viability, T/C: 103%
Second compound 0.3 µM, first compound 3.16 µM
  viability, T/C: 100%
Second compound 0.3 µM, first compound 10 µM
  viability, T/C: 91.5%
Second compound 0.3 µM, first compound 31.6 µM
  viability, T/C: 93.4%
Second compound 0.3 µM, first compound 100 µM
  viability, T/C: 106%
Second compound 0.949 µM, first compound 0.316 µM
  viability, T/C: 122%
Second compound 0.949 µM, first compound 1 µM
  viability, T/C: 99.1%
Second compound 0.949 µM, first compound 3.16 µM
  viability, T/C: 94.6%
Second compound 0.949 µM, first compound 10 µM
  viability, T/C: 86.2%
Second compound 0.949 µM, first compound 31.6 µM
  viability, T/C: 21.8%
Second compound 0.949 µM, first compound 100 µM
  viability, T/C: 100%
Second compound 3 µM, first compound 0.316 µM
  viability, T/C: 108%
Second compound 3 µM, first compound 1 µM
  viability, T/C: 107%
Second compound 3 µM, first compound 3.16 µM
  viability, T/C: 88.3%
Second compound 3 µM, first compound 10 µM
  viability, T/C: 76%
Second compound 3 µM, first compound 31.6 µM
  viability, T/C: 51.6%
Second compound 3 µM, first compound 100 µM
  viability, T/C: 94.6%
Second compound 9.49 µM, first compound 0.316 µM
  viability, T/C: 96.6%
Second compound 9.49 µM, first compound 1 µM
  viability, T/C: 101%
Second compound 9.49 µM, first compound 3.16 µM
  viability, T/C: 80.1%
Second compound 9.49 µM, first compound 10 µM
  viability, T/C: 72.5%
Second compound 9.49 µM, first compound 31.6 µM
  viability, T/C: 8.73%
Second compound 9.49 µM, first compound 100 µM
  viability, T/C: 88.5%
Second compound 30 µM, first compound 0.316 µM
  viability, T/C: 87.9%
Second compound 30 µM, first compound 1 µM
  viability, T/C: 94.6%
Second compound 30 µM, first compound 3.16 µM
  viability, T/C: 84.8%
Second compound 30 µM, first compound 10 µM
  viability, T/C: 71.7%
Second compound 30 µM, first compound 31.6 µM
  viability, T/C: 1.55%
Second compound 30 µM, first compound 100 µM
  viability, T/C: 86.9%
